Data: US9266902B2, “Labelling reagents having a pyridine nucleus bearing a diazomethyl function, process for synthesis of such reagents and processes for detection of biological molecules” (priority 2008, dated 2016)

Assays:
[1] = test system: RNA amplicon (NASBA), 16S RNA of Mycobacterium tuberculosis; test: Labelling of RNA amplicon without interim purification, detection by hybridisation on DNA chip; conditions: label 2 mM, 3 mM HCl, no purification
Procedure: In a 1 mL tube, the following are mixed: • 5 μL of 8 mM label solution (96/4 DMSO/Methanol).
The nucleic acids thus labelled are not purified, but are hybridised directly.
The labelled nucleic acids are transferred without purification into 480 μL of hybridisation buffer. The samples are hybridised on the DNA chips in the same way as for the previous example.

[2] = test system: RNA amplicon (NASBA), 16S RNA of Mycobacterium tuberculosis; conditions: label 2.5 mM, hybridisation at 45° C. up to 24 hrs
Procedure: The solution is mixed by vortex then incubated for 10 minutes at 65° C.
The labelled nucleic acids were purified on a QiaQuick (PCR purification kit, Qiagen) column using the purification protocol recommended by the manufacturer. The elution volume is 100 μL.
After purification, the labelled nucleic acids are transferred into 400 of hybridisation buffer. The samples are hybridised on the DNA chips designed for the analysis of the “GenBank” M20940 sequence of the 16S RNA of Mycobacterium tuberculosis. […] The hybridisation stages were performed by injecting. 80 μL of the hybridisation mixture into the chip then maintaining this in a hybridisation oven at 45° C. for 0.5 hour, 2 hours, 6.5 hours or 24 hours.
300 μL of pure water; 300 μL of 100 mM Tris buffer pH 7/1 M NaCl/0.05% Tween 20/0.005% antifoamant; 6 μL of BSA (50 mg/mL); 6 μL of SA-PE (300 μg/mL).
The reading of the fluorescence emitted at the surface of the DNA chip after labelling and hybridisation and the generation of data in terms of signal intensity and percentage homology are performed with the reading systems and software supplied by Affymetrix. The reading system supplies signal and background noise intensities expressed in rfu (“relative fluorescence unit”). The percentage homology is given relative to a reference sequence which in this case is the sequence of Mycobacterium tuberculosis.

[3] = Stability in the dry form at +4° C. after lyophilisation (HPLC purity over time); conditions: 250 mM in 10 mM Tris HCl pH 7.5 and 10% trehalose, lyophilised one night
[4] = Stability in a liquid medium at ambient temperature (HPLC purity over time); type: physicochemical; conditions: 125 mM in 96/4 DMSO/methanol, ambient temperature (22° C.), at 10 days

Substance	background noise compared to BBP [1]	percentage homology [1]	specific signals (specific hybridisation) compared to BBP [1]	stability of labelled amplicons in the course of hybridisation [2]	stability to lyophilisation [3]	purity of the initial compound [4] [%]
Pyridine Diazo Biotin [PyDB]	reduced background noise	higher	improved	perfectly stable	perfectly stable	
[Bio-EG3]2-PDAM [BBP, reference compound]		relatively low				< 10
